In brackets after ≈: the same amount, converted by molar mass.
Columns and labels:
S. aureus ATCC 6538 [1] = experiment: MIC microdilution; format: cell-based; details: Staphylococcus aureus, ATCC6538; S. aureus ATCC 6538; 18 h, 35 °C; read-out: MIC
MRSE 466/11 = experiment: MIC microdilution, hospital MRSE; format: cell-based; details: Staphylococcus epidermidis; hospital MRSE strain 466/11; read-out: MIC
MRSE 467/11 = experiment: MIC microdilution, hospital MRSE; format: cell-based; details: Staphylococcus epidermidis; hospital MRSE strain 467/11; read-out: MIC
MRSA 537/12 = experiment: MIC microdilution, hospital MRSA; format: cell-based; details: Staphylococcus aureus; hospital MRSA strain 537/12; read-out: MIC
MRSE 461/11 = experiment: MIC microdilution, hospital MRSE; format: cell-based; details: Staphylococcus epidermidis; hospital MRSE strain 461/11; read-out: MIC
S. aureus ATCC 6538 [2] = experiment: Disc-diffusion (GIZ); format: cell-based; details: 18 h, 35 °C, un: unmeasurable
Description: (§1) Microorganisms used in this study were as follows: Gram-positive cocci: S. aureus NCTC 4163, S. aureus ATCC 25923, S. aureus ATCC 6538, S. aureus ATCC 29213, S. epidermidis ATCC 12228, S. epidermidis ATCC 35984, Gram-negative rods: E. coli ATCC 10538, E. coli ATCC 25922, E. coli NCTC 8196, P. vulgaris NCTC 4635, P. aeruginosa ATCC 15442, P. aeruginosa NCTC 6749, P. aeruginosa ATCC 27863, B. bronchiseptica ATCC 4617 and yeasts: C. albicans ATCC 10231, C. albicans ATCC 90028, C. parapsilosis ATCC 22019. The other microorganisms used were obtained from the collection of the Department of Pharmaceutical Microbiology, Medical University of Warsaw, Poland.
(§2) Antibacterial activity was examined by the disc-diffusion method under standard conditions using Mueller-Hinton II agar medium (Becton Dickinson, Heidelberg, Germany) according to CLSI (previously NCCLS) guidelines. Antifungal activities were assessed using Muellere Hinton agar + 2% glucose and 0.5 mg/mL Methylene Blue Dye Medium.
(§3) Sterile filter paper discs (9 mm diameter, Whatman No. 3 chromatography paper) were dripped with tested compound solutions (in EtOH) to load […] of a given compound per disc. Dry discs were placed on the surface of appropriate agar medium. The results (diameter of the growth inhibition zone, GIZ) were read after 18 h of incubation at 35 °C.

S. aureus ATCC 29213 [3] = experiment: Disc-diffusion (GIZ); format: cell-based; details: 18 h, 35 °C, un: unmeasurable
Description: as §1, §2, §3

[4] = test system: S. epidermidis ATCC 12228; experiment: Disc-diffusion (GIZ); format: cell-based; details: 18 h, 35 °C, un: unmeasurable
Description: as §1, §2, §3

S. aureus ATCC 25923 = experiment: Disc-diffusion (GIZ); format: cell-based; details: 18 h, 35 °C, un: unmeasurable
Description: as §1, §2, §3

[5] = test system: S. epidermidis ATCC 35984; experiment: Disc-diffusion (GIZ); format: cell-based; details: 18 h, 35 °C, un: unmeasurable
Description: as §1, §2, §3

S. aureus ATCC 4163 [6] = experiment: Disc-diffusion (GIZ); format: cell-based; details: 18 h, 35 °C, un: unmeasurable
Description: as §1, §2, §3

MRSA 573/12 = experiment: MIC microdilution, hospital MRSA; format: cell-based; details: Staphylococcus aureus; hospital MRSA strain 573/12; read-out: MIC
MRSA 585/12 = experiment: MIC microdilution, hospital MRSA; format: cell-based; details: Staphylococcus aureus; hospital MRSA strain 585/12; read-out: MIC
MRSA 456/11 = experiment: MIC microdilution, hospital MRSA; format: cell-based; details: Staphylococcus aureus; hospital MRSA strain 456/11; read-out: MIC
MRSE 488/11 = experiment: MIC microdilution, hospital MRSE; format: cell-based; details: Staphylococcus epidermidis; hospital MRSE strain 488/11; read-out: MIC
MRSA 522/12 = experiment: MIC microdilution, hospital MRSA; format: cell-based; details: Staphylococcus aureus; hospital MRSA strain 522/12; read-out: MIC
MRSE 489/11 = experiment: MIC microdilution, hospital MRSE; format: cell-based; details: Staphylococcus epidermidis; hospital MRSE strain 489/11; read-out: MIC
MRSE 459/11 = experiment: MIC microdilution, hospital MRSE; format: cell-based; details: Staphylococcus epidermidis; hospital MRSE strain 459/11; read-out: MIC
MRSA 452/11 = experiment: MIC microdilution, hospital MRSA; format: cell-based; details: Staphylococcus aureus; hospital MRSA strain 452/11; read-out: MIC
MRSE 469/11 = experiment: MIC microdilution, hospital MRSE; format: cell-based; details: Staphylococcus epidermidis; hospital MRSE strain 469/11; read-out: MIC
MRSA 586/12 = experiment: MIC microdilution, hospital MRSA; format: cell-based; details: Staphylococcus aureus; hospital MRSA strain 586/12; read-out: MIC
[7] = test system: S. epidermidis ATCC 12228; experiment: MIC microdilution; format: cell-based; details: Staphylococcus epidermidis, ATCC12228; S. epidermidis ATCC 12228; 18 h, 35 °C; read-out: MIC
MRSA 514/11 = experiment: MIC microdilution, hospital MRSA; format: cell-based; details: Staphylococcus aureus; hospital MRSA strain 514/11; read-out: MIC
MRSA = experiment: MIC microdilution, MRSA strains overall (range given); format: cell-based, Staphylococcus aureus; details: hospital MRSA strains
MRSE 468/11 = experiment: MIC microdilution, hospital MRSE; format: cell-based; details: Staphylococcus epidermidis; hospital MRSE strain 468/11; read-out: MIC
S. aureus ATCC 29213 [8] = experiment: MIC microdilution; format: cell-based; details: Staphylococcus aureus, ATCC29213; S. aureus ATCC 29213; 18 h, 35 °C; read-out: MIC
MRSA 462/11 = experiment: MIC microdilution, hospital MRSA; format: cell-based; details: Staphylococcus aureus; hospital MRSA strain 462/11; read-out: MIC
S. aureus ATCC 4163 [9] = experiment: MIC microdilution; format: cell-based; details: Staphylococcus aureus, ATCC4163; S. aureus ATCC 4163; 18 h, 35 °C; read-out: MIC
MRSA 572/12 = experiment: MIC microdilution, hospital MRSA; format: cell-based; details: Staphylococcus aureus; hospital MRSA strain 572/12; read-out: MIC

MIC (S. aureus ATCC 6538 [1]): 0.25 µg/mL (≈ 0.754 µM)
MIC (MRSE 466/11): 2 µg/mL (≈ 6.04 µM)
MIC (MRSE 467/11): 16 µg/mL (≈ 48.3 µM)
MIC (MRSA 537/12): 64 µg/mL (≈ 193 µM)
MIC (MRSE 461/11): 0.25 µg/mL (≈ 0.754 µM)
MIC (MRSA 573/12): 32 µg/mL (≈ 96.6 µM)
MIC (MRSA 585/12): 64 µg/mL (≈ 193 µM)
MIC (MRSA 456/11): 32 µg/mL (≈ 96.6 µM)
MIC (MRSE 488/11): 16 µg/mL (≈ 48.3 µM)
MIC (MRSA 522/12): 32 µg/mL (≈ 96.6 µM)
MIC (MRSE 489/11): 0.25 µg/mL (≈ 0.754 µM)
MIC (MRSE 459/11): 16 µg/mL (≈ 48.3 µM)
MIC (MRSA 452/11): 32 µg/mL (≈ 96.6 µM)
MIC (MRSE 469/11): 8 µg/mL (≈ 24.1 µM)
MIC (MRSA 586/12): 64 µg/mL (≈ 193 µM)
MIC [7]: 0.25 µg/mL (≈ 0.754 µM)
MIC (MRSA 514/11): 32 µg/mL (≈ 96.6 µM)
MIC (range over MRSA strains) (MRSA): 32 to 64 µg/mL
MIC (MRSE 468/11): 16 µg/mL (≈ 48.3 µM)
MIC (S. aureus ATCC 29213 [8]): 0.5 µg/mL (≈ 1.51 µM)
MIC (MRSA 462/11): 64 µg/mL (≈ 193 µM)
MIC (S. aureus ATCC 4163 [9]): 0.25 µg/mL (≈ 0.754 µM)
MIC (MRSA 572/12): 64 µg/mL (≈ 193 µM)
SMILES: O=C(O)c1cn(C2CC2)c2cc(N3CCNCC3)c(F)cc2c1=O [ciprofloxacin, reference compound]
GIZ (S. aureus ATCC 6538 [2]): 28 mm
GIZ (S. aureus ATCC 29213 [3]): 22 mm
GIZ [4]: 30 mm
GIZ (S. aureus ATCC 25923): 26 mm
GIZ [5]: 32 mm
GIZ (S. aureus ATCC 4163 [6]): 26 mm
